Assays:
[1] = tested on: L6-myotubes; test: Measurement of intracellular cAMP levels in differentiated L6-myotubes (Biological Example 3); assay type: cell-based; conditions: 0.25 h
Method: (§1) Compounds described in publications referenced and incorporated herein were screened in accordance with the procedures outlined in Biological example 2 and Biological example 3.
Differentiated L6-myotubes were serum-starved overnight and stimulated with isoprenaline or the test compound with a final concentration of 1×10^−5 M, for 15 min in stimulation buffer (HBSS supplemented with 1% BSA, 5 mM HEPES and 1 mM IBMX, pH 7.4). The medium was aspirated and 100 μL of 95% EtOH was added to each well of the 24-well plate and cells were kept at −20° C. overnight. The EtOH was allowed to evaporate and 500 μL of lysis buffer (1% BSA, 5 mM HEPES and 0.3% Tween-20, pH 7.4) was added to each well. The plate was kept at −80° C. for 30 min and then at −20° C. until the day of detection when the samples were thawed. Intracellular cAMP levels were detected using an alpha screen cAMP kit (6760635D from Perkin Elmer).

[2] = tested on: L6-myotubes; test: Glucose uptake in differentiated L6-myotubes (Biological Example 2); assay type: cell-based; conditions: for Emax at 10 µM: read-out: Biological example 2 (GU)
Method: as §1
Differentiated L6-myotubes were serum-starved overnight in medium containing 0.5% fatty-acid free BSA and stimulated with isoprenaline or the test compound, with a final concentration of 1×10^−5 M. After 1 h 40 min the cells were washed with warm glucose free medium or PBS twice and another portion of agonist was added to the glucose free medium. After 20 min the cells were exposed to 50 nM ^3H-2-deoxyglucose for 10 min before washed with ice cold glucose free medium or PBS three times and lysed with 0.2 M NaOH, 400 μL/well, for 1 h at 60° C. The cell lysate was mixed with 4 mL scintillation buffer (Emulsifier Safe, Perkin Elmer) and the radioactivity was detected in a […] (Tri-Carb 4810TR, Perkin Elmer).

[3] = intracellular cAMP, compound at 10 μM relative to isoproterenol at 10 μM
[4] = glucose uptake, compound at 10 μM relative to isoproterenol at 10 μM
[5] = intracellular cAMP in differentiated L6-myotubes, compound at 10 μM, activity relative to isoproterenol at 10 μM
[6] = glucose uptake in differentiated L6-myotubes, compound at 10 μM, activity relative to isoproterenol at 10 μM

In the case of `CCCCNC[C@H](O)c1ccc(O)cc1` [Compound 9, (R)-2-(butylamino)-1-(p-hydroxyphenyl)-1-ethanol], the Emax at 10 µM [1, 3] is reported as < 25% and the Emax at 10 µM [2, 4] is reported as > 75%.
For `CCC[C@H]1CC[C@@H]([C@@H](O)c2cccc(F)c2)N1` [Compound 131, (S)-[(2S,5S)-5-propyl-2-pyrrolidinyl](m-fluorophenyl)methanol], the Emax at 10 µM [1, 3] was < 25% and the Emax at 10 µM [2, 4] was 50 to 75%.
With `COc1ccc(C[C@@H]2CC[C@H]([C@H](O)c3cncc(F)c3)N2)cc1` [Compound 378, (R)-{(2R,5S)-5-[(p-methoxyphenyl)methyl]-2-pyrrolidinyl}(5-fluoro-3-pyridyl)methanol] the Emax at 10 µM [1, 5] was < 25% and the Emax at 10 µM [2, 6] was > 75%.
For `CC(C)(NC[C@H](O)c1cccc(F)c1)[C@H]1CC[C@H](OCc2ccccc2)CC1` [Compound 279, (R)-1-(m-fluorophenyl)-2-{1-methyl-1-[(1r,4R)-4-(benzyloxy)cyclohexyl]ethylamino}-1-ethanol], the Emax at 10 µM [1, 5] was < 25% and the Emax at 10 µM [2, 6] was 50 to 75%.
For `O[C@H](c1cccc(F)c1)C12CCC(C/C=C/c3ccccc3)(CC1)N2` [Compound 534], the Emax at 10 µM [1, 5] was < 25% and the Emax at 10 µM [2, 6] was > 75%.
For `CN([C@H]1CC[C@H](CC(C)(C)NC[C@H](O)c2cncc(F)c2)CC1)S(C)(=O)=O` [Compound 521, (R)-2-{1,1-dimethyl-2-[(1r,4R)-4-(N-mesyl-N-methylamino)cyclohexyl]ethylamino}-1-(5-fluoro-3-pyridyl)-1-ethanol], the Emax at 10 µM [1, 5] was < 25% and the Emax at 10 µM [2, 6] was 50 to 75%.
With `CC1(C)CC[C@@H]([C@@H](O)c2cccc(F)c2)N1` [Compound 145, (S)-[(S)-5,5-dimethyl-2-pyrrolidinyl](m-fluorophenyl)methanol] the Emax at 10 µM [1, 3] was < 25% and the Emax at 10 µM [2, 4] was 25 to 50%.
With `CC(C)(C[C@H]1CC[C@H](NC(=O)OC(C)(C)C)CC1)NC[C@H](O)c1cccc(C(F)(F)F)n1` [Compound 459] the Emax at 10 µM [1, 5] was < 25% and the Emax at 10 µM [2, 6] was > 75%.
With `CC(C)(C[C@H]1CC[C@H](NS(=O)(=O)C2CC2)CC1)NC[C@H](O)c1cccc(F)c1` [Compound 496] the Emax at 10 µM [1, 5] was < 25% and the Emax at 10 µM [2, 6] was 50 to 75%.
`O[C@H](c1cncc(F)c1)C12CCC(COCc3ccc(F)cc3)(CC1)N2` [Compound 443, (R)-(4-{[(p-fluorophenyl)methoxy]methyl}-7-azabicyclo[[2.2.1]]hept-1-yl)(5-fluoro-3-pyridyl)methanol] was tested, and the Emax at 10 µM [1, 5] was 25 to 50% and the Emax at 10 µM [2, 6] was > 75%.
With `CCCC(C)(C)NC[C@H](O)c1cccc(F)c1` [Compound 61, (R)-2-(1,1-dimethylbutylamino)-1-(m-fluorophenyl)-1-ethanol] the Emax at 10 µM [1, 3] was < 25% and the Emax at 10 µM [2, 4] was > 75%.
In the case of `COc1ccc(CCC23CCC([C@@H](O)c4cncc(F)c4)(CC2)N3)cc1` [Compound 541, (S)-(5-fluoro-3-pyridyl){4-[2-(p-methoxyphenyl)ethyl]-7-azabicyclo[[2.2.1]]hept-1-yl}methanol], the Emax at 10 µM [1, 5] is reported as < 25% and the Emax at 10 µM [2, 6] is reported as < 25%.
For `CO[C@H]1CC[C@H](CCC(C)(C)NC[C@H](O)c2cncc(F)c2)CC1` [Compound 267, (R)-2-{1,1-dimethyl-3-[(1r,4S)-4-methoxycyclohexyl]propylamino}-1-(5-fluoro-3-pyridyl)-1-ethanol], the Emax at 10 µM [1, 5] was < 25% and the Emax at 10 µM [2, 6] was 25 to 50%.
With `O[C@@H](CNCCC[C@H]1CC[C@H](OCc2ccccc2)CC1)c1cccc(F)c1` [Compound 278, (R)-1-(m-fluorophenyl)-2-{3-[(1r,4S)-4-(benzyloxy)cyclohexyl]propylamino}-1-ethanol] the Emax at 10 µM [1, 5] was < 25% and the Emax at 10 µM [2, 6] was 25 to 50%.
`CS(=O)(=O)N[C@H]1CC[C@@H](CNC[C@H](O)c2cncc(F)c2)CC1` [Compound 314, (R)-1-(5-fluoro-3-pyridyl)-2-({[(1s,4S)-4-(mesylamino)cyclohexyl]methyl}amino)-1-ethanol] was tested, and the Emax at 10 µM [1, 5] was < 25% and the Emax at 10 µM [2, 6] was 50 to 75%.
`CCCCNC[C@H](O)c1ccccc1F` [Compound 79, (R)-2-(butylamino)-1-(o-fluorophenyl)-1-ethanol] was tested, and the Emax at 10 µM [1, 3] was < 25% and the Emax at 10 µM [2, 4] was > 75%.
With `CC(C)(C)NC[C@H](O)c1cccc(F)c1F` [Compound 76, (R)-2-(tert-butylamino)-1-(2,3-difluorophenyl)-1-ethanol] the Emax at 10 µM [1, 3] was 25 to 50% and the Emax at 10 µM [2, 4] was > 75%.
With `CO[C@H]1CC[C@H](CCCNC[C@H](O)c2cccc(F)c2)CC1` [Compound 259, (R)-1-(m-fluorophenyl)-2-{3-[(1r,4S)-4-methoxycyclohexyl]propylamino}-1-ethanol] the Emax at 10 µM [1, 5] was < 25% and the Emax at 10 µM [2, 6] was 25 to 50%.
In the case of `COc1ccc(C[C@@H]2CC[C@H]([C@@H](O)c3cncc(F)c3)N2)cc1` [Compound 377, (S)-{(2R,5S)-5-[(p-methoxyphenyl)methyl]-2-pyrrolidinyl}(5-fluoro-3-pyridyl)methanol], the Emax at 10 µM [1, 5] is reported as < 25% and the Emax at 10 µM [2, 6] is reported as > 75%.
`CCCCNCC(O)c1cccnc1` (stereo not shown) [Compound 49, 2-(butylamino)-1-(3-pyridyl)-1-ethanol] was tested, and the Emax at 10 µM [1, 3] was < 25% and the Emax at 10 µM [2, 4] was 50 to 75%.
`CCC[C@@H]1CCC[C@H]([C@@H](O)c2cccc(O)c2)N1` [Compound 137, (S)-[(2R,6R)-6-propyl-2-piperidyl](m-hydroxyphenyl)methanol] was tested, and the Emax at 10 µM [1, 3] was < 25% and the Emax at 10 µM [2, 4] was 25 to 50%.
With `CCCCNC[C@H](O)c1ccc(F)cc1O` [Compound 81, (R)-2-(butylamino)-1-(4-fluoro-2-hydroxyphenyl)-1-ethanol] the Emax at 10 µM [1, 3] was < 25% and the Emax at 10 µM [2, 4] was 50 to 75%.
With `CC(C)(C[C@H]1CC[C@H](N)CC1)NC[C@@H](O)c1cccc(C#N)n1` [Compound 415] the Emax at 10 µM [1, 5] was < 25% and the Emax at 10 µM [2, 6] was 50 to 75%.
`CC(C)(CC[C@H]1CC[C@H](O)CC1)NC[C@H](O)c1ccccc1F` [Compound 319, (R)-2-{1,1-dimethyl-3-[(1r,4S)-4-hydroxycyclohexyl]propylamino}-1-(o-fluorophenyl)-1-ethanol] was tested, and the Emax at 10 µM [1, 5] was < 25% and the Emax at 10 µM [2, 6] was > 75%.
In the case of `O[C@@H](CNCC[C@H]1CC[C@H](OCc2ccccc2)CC1)c1cccc(F)c1` [Compound 288, (R)-1-(m-fluorophenyl)-2-{2-[(1r,4R)-4-(benzyloxy)cyclohexyl]ethylamino}-1-ethanol], the Emax at 10 µM [1, 5] is reported as < 25% and the Emax at 10 µM [2, 6] is reported as 25 to 50%.
For `CO[C@H]1CC[C@H](C(C)(C)NC[C@H](O)c2cncc(F)c2)CC1` [Compound 240, (R)-1-(5-fluoro-3-pyridyl)-2-{1-methyl-1-[(1r,4R)-4-methoxycyclohexyl]ethylamino}-1-ethanol], the Emax at 10 µM [1, 5] was < 25% and the Emax at 10 µM [2, 6] was > 75%.
With `Oc1ccc(C(O)CNC23CC4CC(CC(C4)C2)C3)cc1` (stereo not shown) [Compound 11, p-[2-(1-adamantanylamino)-1-hydroxyethyl]phenol] the Emax at 10 µM [1, 3] was < 25% and the Emax at 10 µM [2, 4] was 25 to 50%.
`CC(C)(NC[C@H](O)c1cccc(F)c1)[C@H]1CC[C@H](O)CC1` [Compound 283, (R)-1-(m-fluorophenyl)-2-{1-methyl-1-[(1r,4R)-4-hydroxycyclohexyl]ethylamino}-1-ethanol] was tested, and the Emax at 10 µM [1, 5] was < 25% and the Emax at 10 µM [2, 6] was 50 to 75%.
With `CC1(C)CCC[C@H]([C@H](O)c2cccc(O)c2)N1` [Compound 104, (R)-[(R)-6,6-dimethyl-2-piperidyl](m-hydroxyphenyl)methanol] the Emax at 10 µM [1, 3] was < 25% and the Emax at 10 µM [2, 4] was 25 to 50%.
For `CO[C@H]1CC[C@@H](CCC(C)(C)NC[C@H](O)c2cccc(F)c2)CC1` [Compound 264, (R)-2-{1,1-dimethyl-3-[(1s,4R)-4-methoxycyclohexyl]propylamino}-1-(m-fluorophenyl)-1-ethanol], the Emax at 10 µM [1, 5] was 25 to 50% and the Emax at 10 µM [2, 6] was > 75%.
In the case of `CC(=O)N[C@H]1CC[C@H](CNC[C@H](O)c2cccc(F)c2)CC1` [Compound 308], the Emax at 10 µM [1, 5] is reported as < 25% and the Emax at 10 µM [2, 6] is reported as 50 to 75%.
`O[C@@H](c1ccccc1F)C12CCC(CCc3cccnc3)(CC1)N2` [Compound 547, (S)-(o-fluorophenyl){4-[2-(3-pyridyl)ethyl]-7-azabicyclo[[2.2.1]]hept-1-yl}methanol] was tested, and the Emax at 10 µM [2, 6] was > 75%.
In the case of `CC(C)NCC(O)c1ccc(O)c(O)c1` (stereo not shown) [isoprenaline, reference compound], the glucose uptake ([2]; L6-myotubes, FIGS. 2a-2d) is reported as “full glucose uptake response”.
For `CCCCNCC(O)c1ccc(O)cc1` (stereo not shown) [Compound 1, 2-(butylamino)-1-(p-hydroxyphenyl)-1-ethanol], the Emax at 10 µM [2, 4] was > 75%.
Molecule `Oc1ccc(C(O)CNCCCC(F)(F)F)cc1` (stereo not shown) [Compound 31, 1-(p-hydroxyphenyl)-2-(4,4,4-trifluorobutylamino)-1-ethanol] has an Emax at 10 µM [2, 4] of 50 to 75%.
For `CN([C@H]1CC[C@H](CC(C)(C)NC[C@H](O)c2cccc(F)c2)CC1)S(C)(=O)=O` [Compound 499, (R)-2-{1,1-dimethyl-2-[(1r,4R)-4-(N-mesyl-N-methylamino)cyclohexyl]ethylamino}-1-(m-fluorophenyl)-1-ethanol], the Emax at 10 µM [2, 6] was 25 to 50%.

Reference: patent US20260216294A1, “BETA 2-ADRENERGIC RECEPTOR AGONISTS FOR TREATMENT OR PREVENTION OF MUSCLE WASTING” (ATROGI AB, priority 2023, published 2026)
